Experimental data as given in paper PMC7305224, “Mutually stabilizing interactions between proto-peptides and RNA” (Nature Communications, 2020).

Experiments:
[1] = system: RNA duplex 3 (5′-rArArCrGrUrArUrArCrGrUrU-3′, palindromic); test: RNA thermal denaturation (Tm) by UV hyperchromicity, RNA duplex 3; type: binding
Procedure: (§1) Prior to Tm analyses, RNA samples were annealed in the appropriate buffer by heating to 75 °C and slowly cooling to room temperature. Depsipeptide/peptide was added to the annealed RNA and incubated at 4 °C for 20 min prior to carrying out the analysis. For analyses involving dry-down reaction mixtures, the Tm was determined by monitoring fluorescence increase upon melting of a fluorophore/quencher-labeled RNA duplex (5′-rCrGrArUrUrUrArGrCrG-/3IABkFQ/-3′ and 3′-rGrCrUrArArArUrCrGrC-FAM-5′) using a BioRad CFX Connect rtPCR instrument with a heating ramp of 1 °C/min and 20 μL final sample volumes. For analyses involving pure, synthetic compounds, the Tm of the RNA was determined by monitoring UV hyperchromicity at 260 nm using a Varian Cary Bio-100 spectrophotometer, with a heating ramp of 1 °C/min and 0.5- or 1-cm pathlength cells. The following RNA sequences were used: RNA duplex 1 = 5′-rCrGrCrUrArArArUrCrG-3′ and 5′-rCrGrArUrUrUrArGrCrG-3′; RNA duplex 2 = 5′-rArArArArUrUrUrArUrArUrUrArUrUrA-3′ and 5′-rUrArArUrArArUrArUrArArArUrUrUrU-3′; RNA duplex 3 = 5′-rArArCrGrUrArUrArCrGrUrU-3′ (palindromic); and H26a RNA = 5′-rArUrGrArGrUrArArCrCrGrUrArArGrGrUrGrArArArUrU-3′. RNA was present in each assay at a final concentration of 2.5 μM of the folded structure (2.5 μM each strand for duplex 1 and duplex 2, 5.0 μM palindromic strand for duplex 3, 2.5 μM strand for H26a RNA). Tm values were determined by nonlinear fitting of the melting curves using GraphPad Prism 8.2.1 for duplex 1 and H26a, or by finding the maximum of the first derivative of the curve using the Varian Cary Bio-100 software for duplex 2 and duplex 3. Both methods of determining the Tm gave similar values for a given denaturation curve.

[2] = system: H26a RNA (5′-rArUrGrArGrUrArArCrCrGrUrArArGrGrUrGrArArArUrU-3′); test: RNA thermal denaturation (Tm) by UV hyperchromicity, H26a RNA hairpin; type: binding
Procedure: as §1

RNA duplex 1 = test: Depsipeptide hydrolysis assay with or without RNA duplex 1, SimFit modelling; type: physicochemical
Text: Fig. 5 RNA increases the hydrolytic lifetime of a cationic depsipeptide. a A schematic of depsipeptide-RNA interactions leading to increased depsipeptide lifetimes. The free depsipeptide is hydrolyzed with a pseudo-first rate constant, khyd-free. Binding of the depsipeptide to RNA is governed at equilibrium by kassoc/kdissoc. The pseudo-first rate constant for of depsipeptide hydrolysis within the depsipeptide–RNA complex is khyd-complex. Under conditions where complex formation is favorable and khyd-complex < khyd-free, the presence of RNA will increase the depsipeptide lifetime. b HPLC traces (270 nm) showing hydrolysis of depsipeptide 9 (25 μM) at various time points in the presence or absence of RNA duplex 1 at 37 °C in pH 7.3 buffer. The C-terminal fragment of the hydrolyzed depsipeptide is not observed because it lacks the Aba chromophore. (c) Time courses for hydrolysis of depsipeptide 9 (25 μM) with varying concentrations of the RNA duplex 1. The curves shown are from simultaneous fits of data to the model given in panel a using SimFit[44]. During fitting, we fixed kassoc = 1 × 10^5 M^−1 s^−1. Therefore, three rate constants were fit, with values obtained by the fitting of: khyd-free = 1.1 × 10^−4 s^−1, khyd-complex = 3.2 × 10^−6 s^−1, and kdissoc = 8.3 × 10^−3 s^−1. d Kinetic profile of the hydrolysis reaction of depsipeptide 9 (25 μM) in the presence of 7 μM RNA duplex 1. […] The extent of depsipeptide hydrolysis and RNA hybridization were then measured. Data are shown as a scatter plot of two independently repeated experiments.
(§2) To determine the extent of depsipeptide hydrolysis, the depsipeptide (25 μM) was incubated at 37 °C in buffer (100 mM HEPES, 10 mM NaCl, pH 7.3) in the presence or absence of 10mer RNA duplex 1 (5′-rCrGrArUrUrUrArGrCrG-3′ and 3′-rGrCrUrArArArUrCrGrC-5′) at various concentrations, or with single-stranded RNA (5′-rCrGrArUrUrUrArGrCrG-3′, 100 μM), for up to 100 h. Prior to adding depsipeptide to the reaction from its stock solution, the RNA was annealed by heating to 75 °C for 5 min, and then slowly cooling to room temperature. Reaction aliquots were quenched using 3% TFA and frozen or immediately analyzed by HPLC (270 nm). The relative concentrations of intact and hydrolyzed depsipeptide were quantified by integrating the corresponding peaks in HPLC traces. The kinetic profiles of depsipeptide hydrolysis were fit using SimFit-32 (provided by G. von Kiedrowski) according to the reaction scheme shown in Fig. 5a.
Data from the nine independent depsipeptide hydrolysis reactions carried out with different concentrations of RNA duplex were simultaneously fit using SimFit to the reaction model shown in Fig. 5a. In the model, the free depsipeptide is subject to hydrolysis at a pseudo-first order rate governed by khyd-free. Binding of the depsipeptide to RNA according to an equilibrium determined by kassoc/kdissoc yields a depsipeptide-RNA complex, for which the pseudo-first order rate of ester hydrolysis is described by khyd-complex. During fitting, we fixed kassoc = 1 × 10^5 M^−1 s^−1, on the lower end of rates observed and expected for protein–RNA association. Therefore, three parameters were variable during the fitting, and the final rate constants determined by the fitting were: khyd-free = 1.1 × 10^−4 s^−1, khyd-complex = 3.2 × 10^−6 s^−1, and kdissoc = 8.3 × 10^−3 s^−1. […] Our model assumes a 1:1 stoichiometry for depsipeptide:RNA in the complex, and assumes the RNA is present only as a duplex (ignores steps involving RNA strand hybridization to form the duplex). The final RMS error of the fit was 5.4%. The output file obtained from the fitting is provided in the Supplementary Note.

[3] = system: single-stranded 10mer RNA (5′-rCrGrArUrUrUrArGrCrG-3′); test: Depsipeptide hydrolysis assay with single-stranded RNA; type: physicochemical; settings: 25 μM depsipeptide, single-stranded 10mer RNA 100 µM, 37 °C, pH 7.3 buffer, HPLC
Procedure: as §2

[4] = SimFit results output file, final NEWTON values

level of intact depsipeptide with RNA vs depsipeptide alone (RNA duplex 1; 25 μM depsipeptide ± RNA duplex 1 (25 μM each strand), 37 °C, 12 h, HPLC): substantially higher levels
increase of observed depsipeptide lifetime by RNA duplex (RNA duplex 1; 25 μM depsipeptide, RNA duplex 1, 37 °C, pH 7.3 buffer, HPLC): ~ 30 fold
k3 (SimFit output; khyd-complex) (RNA duplex 1; [4]): 3.1996E-6
k1 (SimFit output; khyd-free) (RNA duplex 1; SimFit results output file, final NEWTON values, R.M.S. 5.4087 %): 1.0596E-4
Kd (RNA duplex 1; from fixed kassoc and calculated kdissoc, read-out: predicted dissociation constant of the depsipeptide-RNA complex): 100 nM
fold by which khyd-complex is lower than khyd-free (RNA duplex 1; ratio of fitted rate constants): ~ 34 fold
increase of depsipeptide lifetime by single-stranded RNA [3]: roughly fivefold
Substance: Aba-Gly-Ala-Dab-Lys-Ala-Dab-Lys-lac-Dab-Lys-Ala-Dab-Lys-NH2 [compound 9]
RNA duplex 3 Tm ([1]; observed Tm with peptide/depsipeptide 100 µM, pH 7.0, RNA alone 48.6 ± 0.7, mean ± SD of 2-4 independent experiments): 58.5 ± 0.7 °C
RNA duplex 3 ΔTm ([1]; peptide/depsipeptide 100 μM, 5.0 μM palindromic strand, pH 7.0, 10 mM phosphate, 100 mM NaCl, mean of 2–4 replicates): 9.9 °C
H26a RNA Tm ([2]; observed Tm with peptide/depsipeptide 100 µM, pH 7.0, RNA alone 53.4 ± 0.5, mean ± SD of 2-4 independent experiments): 64.9 ± 0.7 °C
H26a RNA ΔTm ([2]; peptide/depsipeptide 100 μM, RNA 2.5 μM strand, pH 7.0, 10 mM phosphate, 100 mM NaCl, mean of 2–4 replicates): 11.5 °C
kdissoc (depsipeptide–RNA complex) (RNA duplex 1; SimFit fit of hydrolysis data with kassoc fixed at 1 × 10^5 M^−1 s^−1, 37 °C, pH 7.3): 0.0083 s⁻¹
k2 (SimFit output; kdissoc) (RNA duplex 1; [4]): 8.2871E-3
